Reference: patent US20080009418A1, “Selective Inhibitors” (Alchemia LTD., priority 2004, published 2008)

Legend:
[1] = target: T1, Human neurokinin (NK1) (Homo sapiens, UniProt P25103); assay: Radioligand binding, human neurokinin NK1 membranes, filtration, [125I]-Substance P; conditions: compound at 10 μM; for A8: inhibition of radioligand binding: [125I]-Substance P
T1 construct: purchased Perkin Elmer Biosignal
Method in brief: (§1)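 Percent inhibition of radioligand binding measured on recombinant human membranes: NK1 with [125I]-Substance P, KOP with [3H]-Diprenorphine. Incubation 1 h at room temperature, then harvest onto 0.3% PEI-soaked filters, cold Tris-HCl pH 7.4 washes and scintillation counting; non-specific binding from reference ligand wells.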

[2] = target: T2, Human δ-opioid (DOP) (Homo sapiens, UniProt P41143); assay: Radioligand binding, human δ-opioid (DOP) membranes, FlashPlate, [3H]-Bremazocine; conditions: compound at 10 μM; for A1: inhibition of radioligand binding: [3H]-Bremazocine
T2 construct: purchased Perkin Elmer Biosignal
Method in brief: (§2)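 Cloned human receptor membranes were coated onto FlashPlate wells and incubated with radioligand and compound (added from a 0.5 mM DMSO daughter plate) for 1 hour at room temperature in the dark. Scintillation counting gave percent inhibition, with DMSO defining total and reference ligand defining non-specific binding.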

[3] = target: T3, Human Melanocortin (MC3) (Homo sapiens, UniProt P41968); assay: Radioligand binding, human melanocortin MC3 membranes, FlashPlate, [125I]-NDP-αMSH; conditions: compound at 10 μM; for A3: inhibition of radioligand binding: [125I]-NDP-αMSH
T3 construct: purchased Perkin Elmer Biosignal
Method in brief: as §2

[4] = target: T4, Human neuropeptide Y (NPY-Y1) (Homo sapiens, UniProt P25929); assay: Radioligand binding, human neuropeptide Y NPY-Y1 membranes, FlashPlate, [125I]-PYY; conditions: compound at 10 μM; for A9: inhibition of radioligand binding: [125I]-PYY
T4 construct: purchased Perkin Elmer Biosignal
T4 sequence (P25929 1-384): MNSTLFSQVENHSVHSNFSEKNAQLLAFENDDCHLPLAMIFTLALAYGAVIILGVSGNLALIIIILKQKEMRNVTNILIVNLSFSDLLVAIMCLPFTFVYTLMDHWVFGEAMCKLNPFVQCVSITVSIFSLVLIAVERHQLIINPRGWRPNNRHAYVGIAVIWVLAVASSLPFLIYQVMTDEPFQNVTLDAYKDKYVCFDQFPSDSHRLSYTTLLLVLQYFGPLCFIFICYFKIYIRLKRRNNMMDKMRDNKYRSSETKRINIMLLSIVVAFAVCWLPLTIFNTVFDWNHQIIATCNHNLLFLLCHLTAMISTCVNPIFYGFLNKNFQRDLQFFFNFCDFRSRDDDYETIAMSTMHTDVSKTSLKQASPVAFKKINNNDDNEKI
Method in brief: as §2

[5] = target: T5, Human μ-opioid (MOP) (Homo sapiens, UniProt P35372); assay: Radioligand binding, human μ-opioid (MOP) membranes, FlashPlate, [3H]-Naloxone; conditions: compound at 10 μM; for A7: inhibition of radioligand binding: [3H]-Naloxone
T5 construct: purchased Perkin Elmer Biosignal
Method in brief: as §2

[6] = target: T6, Mouse urotensin (mUR2) (Mus musculus, UniProt Q8VIH9); assay: Radioligand binding, mouse urotensin mUR2 membranes, FlashPlate, [125I]-Urotensin II; conditions: compound at 10 μM; for A11: inhibition of radioligand binding: [125I]-Urotensin II
T6 construct: purchased Perkin Elmer Biosignal
T6 sequence (Q8VIH9 1-385): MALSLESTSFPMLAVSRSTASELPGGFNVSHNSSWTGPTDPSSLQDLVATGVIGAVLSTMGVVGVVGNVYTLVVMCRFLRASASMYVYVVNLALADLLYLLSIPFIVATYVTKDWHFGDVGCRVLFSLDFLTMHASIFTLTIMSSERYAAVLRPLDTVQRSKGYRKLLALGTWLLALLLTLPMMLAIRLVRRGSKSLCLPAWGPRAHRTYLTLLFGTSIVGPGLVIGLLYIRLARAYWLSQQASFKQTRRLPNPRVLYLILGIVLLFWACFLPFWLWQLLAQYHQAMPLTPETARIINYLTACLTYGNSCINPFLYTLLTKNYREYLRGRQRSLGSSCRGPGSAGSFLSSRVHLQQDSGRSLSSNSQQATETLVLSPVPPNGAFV
Method in brief: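 Cloned mouse urotensin (mUR2) receptor membranes from Perkin Elmer Biosignal were immobilized in FlashPlate microplates using a proprietary coating. Each well got 19.5 μl buffer, then 0.5 μl of DMSO, reference ligand, or compound. Adding 5 μl of [125I]-Urotensin II, diluted to 5× final concentration in binding buffer, started binding. Plates were sealed with TopSeal-A and incubated 1 hour at room temperature in the dark. Wells were counted for 30 seconds each on a TopCount after a 60-second delay, and percentage inhibition was calculated.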

[7] = target: T7, Human κ-Opioid (KOP) (Homo sapiens, UniProt P41145); assay: Radioligand binding, human κ-opioid (KOP) membranes, filtration, [3H]-Diprenorphine; conditions: compound at 10 μM; for A2: inhibition of radioligand binding: [3H]-Diprenorphine
T7 construct: purchased Perkin Elmer Biosignal
Method in brief: as §1

[8] = target: T8, Human Melanocortin (MC4) (Homo sapiens, UniProt P32245); assay: Radioligand binding, human melanocortin MC4 membranes, FlashPlate, [125I]-NDP-αMSH; conditions: compound at 10 μM; for A4: inhibition of radioligand binding: [125I]-NDP-αMSH
T8 construct: purchased Perkin Elmer Biosignal
Method in brief: as §2

[9] = target: T9, Human melanocortin (MC5) (Homo sapiens, UniProt P33032); assay: Radioligand binding, human melanocortin MC5 membranes, FlashPlate, [125I]-NDP-αMSH; conditions: compound at 10 μM; for A5: inhibition of radioligand binding: [125I]-NDP-αMSH
T9 construct: purchased Perkin Elmer Biosignal
Method in brief: as §2

[10] = target: T10, Human opioid (ORL1) (Homo sapiens, UniProt P41146); assay: Radioligand binding, human opioid ORL1 membranes, FlashPlate, [125I]-Nociceptin; conditions: compound at 10 μM; for A10: inhibition of radioligand binding: [125I]-Nociceptin
T10 construct: purchased Perkin Elmer Biosignal
Method in brief: as §2

[11] = target: T11, Human melanin-concentrating hormone (MCH1) (Homo sapiens, UniProt Q99705); assay: Radioligand binding, human melanin-concentrating hormone MCH1 membranes, FlashPlate, [125I]-S36057; conditions: compound at 10 μM
T11 construct: purchased Perkin Elmer Biosignal
Method in brief: as §2

T11 sequence (Q99705 whole entry): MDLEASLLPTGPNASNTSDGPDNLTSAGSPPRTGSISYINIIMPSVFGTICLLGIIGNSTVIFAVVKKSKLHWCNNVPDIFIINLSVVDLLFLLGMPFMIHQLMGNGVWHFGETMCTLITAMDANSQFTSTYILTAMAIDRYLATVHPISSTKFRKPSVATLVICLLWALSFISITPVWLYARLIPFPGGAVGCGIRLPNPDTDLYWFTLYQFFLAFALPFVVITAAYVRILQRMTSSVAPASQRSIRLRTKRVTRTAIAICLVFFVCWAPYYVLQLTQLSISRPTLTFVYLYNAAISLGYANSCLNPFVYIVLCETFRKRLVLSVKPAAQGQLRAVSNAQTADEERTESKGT
T9 sequence (P33032 whole entry): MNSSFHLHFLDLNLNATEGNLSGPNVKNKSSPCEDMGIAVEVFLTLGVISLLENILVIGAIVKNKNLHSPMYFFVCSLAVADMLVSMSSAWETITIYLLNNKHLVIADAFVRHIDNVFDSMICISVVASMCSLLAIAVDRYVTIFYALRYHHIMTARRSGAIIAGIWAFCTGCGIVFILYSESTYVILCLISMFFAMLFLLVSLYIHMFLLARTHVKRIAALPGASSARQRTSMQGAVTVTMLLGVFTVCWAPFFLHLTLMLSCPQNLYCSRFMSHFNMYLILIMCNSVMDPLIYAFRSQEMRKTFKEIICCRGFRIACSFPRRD
T10 sequence (P41146 whole entry): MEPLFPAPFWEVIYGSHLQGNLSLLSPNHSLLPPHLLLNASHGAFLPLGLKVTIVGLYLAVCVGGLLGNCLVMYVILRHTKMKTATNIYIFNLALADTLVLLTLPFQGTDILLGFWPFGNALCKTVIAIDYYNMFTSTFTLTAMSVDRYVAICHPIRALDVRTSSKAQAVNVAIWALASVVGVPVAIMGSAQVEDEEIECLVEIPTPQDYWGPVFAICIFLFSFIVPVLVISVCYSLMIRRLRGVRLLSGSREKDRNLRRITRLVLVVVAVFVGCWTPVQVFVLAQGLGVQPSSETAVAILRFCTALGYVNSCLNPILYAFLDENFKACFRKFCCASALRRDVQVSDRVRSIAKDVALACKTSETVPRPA
T3 sequence (P41968 whole entry): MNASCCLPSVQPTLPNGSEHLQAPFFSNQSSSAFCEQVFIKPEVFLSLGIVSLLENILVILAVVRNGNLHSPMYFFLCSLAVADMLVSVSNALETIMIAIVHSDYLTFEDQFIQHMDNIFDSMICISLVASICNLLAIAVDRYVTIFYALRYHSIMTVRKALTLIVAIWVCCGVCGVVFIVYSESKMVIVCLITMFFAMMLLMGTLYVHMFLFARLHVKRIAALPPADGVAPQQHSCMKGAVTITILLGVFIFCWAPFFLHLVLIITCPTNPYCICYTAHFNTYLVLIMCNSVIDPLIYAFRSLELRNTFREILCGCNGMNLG
T8 sequence (P32245 whole entry): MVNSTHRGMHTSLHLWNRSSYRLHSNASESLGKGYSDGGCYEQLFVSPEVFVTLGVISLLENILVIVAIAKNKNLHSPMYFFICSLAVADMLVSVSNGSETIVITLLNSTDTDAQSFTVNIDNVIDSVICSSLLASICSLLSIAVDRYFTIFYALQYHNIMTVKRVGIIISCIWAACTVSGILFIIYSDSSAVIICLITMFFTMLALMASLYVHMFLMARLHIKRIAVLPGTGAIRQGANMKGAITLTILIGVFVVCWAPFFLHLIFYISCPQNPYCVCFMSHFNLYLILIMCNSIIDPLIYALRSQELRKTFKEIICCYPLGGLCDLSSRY
T1 sequence (P25103 whole entry): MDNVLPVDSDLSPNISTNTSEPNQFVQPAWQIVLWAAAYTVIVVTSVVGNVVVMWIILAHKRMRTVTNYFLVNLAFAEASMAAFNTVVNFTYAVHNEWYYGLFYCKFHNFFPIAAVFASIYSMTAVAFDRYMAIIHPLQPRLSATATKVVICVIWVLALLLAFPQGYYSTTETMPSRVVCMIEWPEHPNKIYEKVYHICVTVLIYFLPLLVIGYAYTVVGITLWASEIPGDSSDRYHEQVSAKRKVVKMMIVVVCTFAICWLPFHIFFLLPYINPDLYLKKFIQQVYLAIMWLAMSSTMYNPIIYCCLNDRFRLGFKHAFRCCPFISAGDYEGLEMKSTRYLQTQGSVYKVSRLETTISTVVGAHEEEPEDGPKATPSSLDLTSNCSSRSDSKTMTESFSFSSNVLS
T7 sequence (P41145 whole entry): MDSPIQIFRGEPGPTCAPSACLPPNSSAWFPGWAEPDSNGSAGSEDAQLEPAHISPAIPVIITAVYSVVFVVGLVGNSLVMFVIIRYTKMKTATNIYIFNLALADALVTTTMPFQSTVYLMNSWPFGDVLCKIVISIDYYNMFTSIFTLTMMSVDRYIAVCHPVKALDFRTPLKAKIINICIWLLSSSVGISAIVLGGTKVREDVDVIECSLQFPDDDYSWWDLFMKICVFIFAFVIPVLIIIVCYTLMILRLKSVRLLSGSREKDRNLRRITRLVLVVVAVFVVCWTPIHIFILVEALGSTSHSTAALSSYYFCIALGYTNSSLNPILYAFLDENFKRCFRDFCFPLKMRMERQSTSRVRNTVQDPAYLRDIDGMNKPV
T2 sequence (P41143 whole entry): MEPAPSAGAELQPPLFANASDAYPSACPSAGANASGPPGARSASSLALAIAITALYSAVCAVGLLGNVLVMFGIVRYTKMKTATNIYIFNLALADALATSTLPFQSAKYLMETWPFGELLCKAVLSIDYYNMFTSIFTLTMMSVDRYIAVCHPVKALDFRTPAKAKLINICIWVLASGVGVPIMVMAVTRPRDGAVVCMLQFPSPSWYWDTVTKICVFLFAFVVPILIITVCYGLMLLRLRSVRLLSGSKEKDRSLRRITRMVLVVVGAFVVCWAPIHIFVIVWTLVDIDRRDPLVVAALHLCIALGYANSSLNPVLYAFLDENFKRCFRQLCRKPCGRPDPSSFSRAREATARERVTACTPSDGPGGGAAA
T5 sequence (P35372 whole entry): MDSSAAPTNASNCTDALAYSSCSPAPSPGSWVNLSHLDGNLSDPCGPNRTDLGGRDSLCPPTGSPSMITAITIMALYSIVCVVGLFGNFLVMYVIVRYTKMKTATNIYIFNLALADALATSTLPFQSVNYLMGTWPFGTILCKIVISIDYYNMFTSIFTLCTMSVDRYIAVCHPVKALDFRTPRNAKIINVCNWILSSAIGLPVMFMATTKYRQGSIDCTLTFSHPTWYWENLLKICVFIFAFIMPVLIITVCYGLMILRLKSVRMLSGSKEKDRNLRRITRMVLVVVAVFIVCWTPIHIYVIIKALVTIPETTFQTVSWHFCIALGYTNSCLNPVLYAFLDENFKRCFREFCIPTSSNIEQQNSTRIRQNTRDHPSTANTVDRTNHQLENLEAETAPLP

## CO[C@H]1[C@H](O)[C@@H](COCc2ccc3ccccc3c2)OC(OCc2ccc(-c3ccccc3)cc2)[C@@H]1NC(=O)CCCNC(=N)N (stereo partly drawn) [compound 57]
[1]; human neurokinin NK1 membranes
  A8 radioligand binding inhibition: + (“+” indicates greater than 50% inhibition at 10 μM)
[2]; human δ-opioid (DOP) membranes
  A1 radioligand binding inhibition: − (“−” indicates less than 50% inhibition at 10 μM)
[3]; human melanocortin MC3 membranes
  A3 radioligand binding inhibition: + (“+” indicates greater than 50% inhibition at 10 μM)
[4]; human NPY-Y1 membranes
  A9 radioligand binding inhibition: − (“−” indicates less than 50% inhibition at 10 μM)
[5]; human μ-opioid (MOP) membranes
  A7 radioligand binding inhibition: + (“+” indicates greater than 50% inhibition at 10 μM)
[6]; mouse urotensin mUR2 membranes
  A11 radioligand binding inhibition: − (“−” indicates less than 50% inhibition at 10 μM)
[7]; human κ-opioid (KOP) membranes
  A2 radioligand binding inhibition: + (“+” indicates greater than 50% inhibition at 10 μM)
[8]; human melanocortin MC4 membranes
  A4 radioligand binding inhibition: + (“+” indicates greater than 50% inhibition at 10 μM)
[9]; human melanocortin MC5 membranes
  A5 radioligand binding inhibition: + (“+” indicates greater than 50% inhibition at 10 μM)
[10]; human ORL1 membranes
  A10 radioligand binding inhibition: + (“+” indicates greater than 50% inhibition at 10 μM)
[11]; human MCH1 membranes
  A6 radioligand binding inhibition: − (“−” indicates less than 50% inhibition at 10 μM)

## N=C(N)NCCC(=O)NC1C(OCc2ccc(Cl)cc2)OC(COCc2ccc3ccccc3c2)C(O)C1OCc1ccc2ccccc2c1 (stereo not drawn) [compound 429]
[1]; human NK1 membranes
  A8: inhibition of radioligand binding: + (“+” indicates greater than 50% inhibition at 10 μM)
[2]; human DOP membranes
  A1: inhibition of radioligand binding: − (“−” indicates less than 50% inhibition at 10 μM)
[3]; human MC3 membranes
  A3: inhibition of radioligand binding: + (“+” indicates greater than 50% inhibition at 10 μM)
[4]; human NPY-Y1 membranes
  A9: inhibition of radioligand binding: − (“−” indicates less than 50% inhibition at 10 μM)
[5]; human MOP membranes
  A7: inhibition of radioligand binding: − (“−” indicates less than 50% inhibition at 10 μM)
[6]; mouse mUR2 membranes
  A11: inhibition of radioligand binding: − (“−” indicates less than 50% inhibition at 10 μM)
[7]; human KOP membranes
  A2: inhibition of radioligand binding: − (“−” indicates less than 50% inhibition at 10 μM)
[8]; human MC4 membranes
  A4: inhibition of radioligand binding: + (“+” indicates greater than 50% inhibition at 10 μM)
[9]; human MC5 membranes
  A5: inhibition of radioligand binding: + (“+” indicates greater than 50% inhibition at 10 μM)
[10]; human ORL1 membranes
  A10: inhibition of radioligand binding: − (“−” indicates less than 50% inhibition at 10 μM)
[11]; [125I]-S36057, human MCH1 membranes
  A6: inhibition of radioligand binding: + (“+” indicates greater than 50% inhibition at 10 μM)

## COCC1OC(OCc2ccc(Cl)cc2)C(NC(=O)CCN)C(OCc2ccc3ccccc3c2)C1O (stereo not drawn) [compound 210]
[1]; filtration
  A8: inhibition of radioligand binding: + (“+” indicates greater than 50% inhibition at 10 μM)
[2]; FlashPlate
  A1: inhibition of radioligand binding: − (“−” indicates less than 50% inhibition at 10 μM)
[3]; FlashPlate
  A3: inhibition of radioligand binding: − (“−” indicates less than 50% inhibition at 10 μM)
[4]; FlashPlate
  A9: inhibition of radioligand binding: − (“−” indicates less than 50% inhibition at 10 μM)
[5]; FlashPlate
  A7: inhibition of radioligand binding: − (“−” indicates less than 50% inhibition at 10 μM)
[6]; FlashPlate
  A11: inhibition of radioligand binding: − (“−” indicates less than 50% inhibition at 10 μM)
[7]; filtration
  A2: inhibition of radioligand binding: − (“−” indicates less than 50% inhibition at 10 μM)
[8]; FlashPlate
  A4: inhibition of radioligand binding: + (“+” indicates greater than 50% inhibition at 10 μM)
[9]; FlashPlate
  A5: inhibition of radioligand binding: + (“+” indicates greater than 50% inhibition at 10 μM)
[10]; FlashPlate
  A10: inhibition of radioligand binding: − (“−” indicates less than 50% inhibition at 10 μM)
[11]; [125I]-S36057, FlashPlate
  A6: inhibition of radioligand binding: − (“−” indicates less than 50% inhibition at 10 μM)
